# Measured values as given in the supplement of paper PMC11616607.
# Key:
# Assay in all cases: drug sensitivity score (DSS) from 5-point dose-response viability curve (DSS (area-under-curve based score)); higher = more sensitive (stronger growth inhibition or killing); extreme values may be limits of the assay
# Details in all cases: exposure time: 72 h; concentration range: 5 concentrations over 10,000-fold range
# [1] = tested on: HOSE1C
# Outline: (§1)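 Each cell line and drug received a drug sensitivity score from Breeze software, where higher means more sensitive. Zero stands for no response. Scores came from CellTiter-Glo viability readings of ovarian cancer and normal ovarian cells, 1,500 per well in 384-well plates, after 3 days at 37°C, 5% CO2 with drugs at five concentrations over a 10,000-fold range.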
# [2] = tested on: HOSE2C
# Outline: as §1
# [3] = tested on: Kuramochi
# Outline: as §1
# [4] = tested on: COV318
# Outline: as §1
# [5] = tested on: COV362
# Outline: as §1
# [6] = tested on: Ovsaho
# Outline: as §1
# [7] = tested on: OVCAR8
# Outline: as §1
# [8] = tested on: OV90
# Outline: as §1
# [9] = tested on: CAOV3
# Outline: as §1
# [10] = tested on: JHOS2
# Outline: as §1
# [11] = tested on: OVCAR5
# Outline: as §1
# [12] = tested on: OVCAR4
# Outline: as §1
Compound,drug sensitivity score [1],drug sensitivity score [2],drug sensitivity score [3],drug sensitivity score [4],drug sensitivity score [5],drug sensitivity score [6],drug sensitivity score [7],drug sensitivity score [8],drug sensitivity score [9],drug sensitivity score [10],drug sensitivity score [11],drug sensitivity score [12]
O=c1[nH]c(=O)n([C@H]2C[C@H](O)[C@@H](CO)O2)cc1F [Floxuridine],4.7,2.5,8.7,0,5.4,6.2,18.1,12.3,14.3,0.8,8.1,9.3
Nc1nc(F)nc2c1ncn2[C@@H]1O[C@H](CO)[C@@H](O)[C@@H]1O [Fludarabine],25.2,22.6,0,0,0.5,0.1,4.4,1.5,0.2,0,0,0.2
O=c1[nH]cc(F)c(=O)[nH]1 [Fluorouracil],2.5,0,0.6,0,0,2.6,2.3,2.3,2,0,2.7,0
CC(C)C(=O)Nc1ccc([N+](=O)[O-])c(C(F)(F)F)c1 [Flutamide],0.2,0,0.7,0.2,0,0,0.3,0,0,0.3,0.1,0.5
COc1cc2c(Oc3ccc(NC(=O)C4(C(=O)Nc5ccc(F)cc5)CC4)cc3F)ccnc2cc1OCCCN1CCOCC1 [Foretinib],1.9,4.5,2.7,1.3,1.2,1.9,1,3.8,6.9,0.5,5.3,3.2
COc1cc(Nc2ncc(F)c(Nc3ccc4c(n3)N(COP(=O)(O)O)C(=O)C(C)(C)O4)n2)cc(OC)c1OC [Fostamatinib],2,8.4,2.4,1.5,0.8,2.4,0.3,2.9,0,0.8,3.7,2.9
C[C@]12CC[C@@H]3c4ccc(O)cc4C[C@@H](CCCCCCCCC[S+]([O-])CCCC(F)(F)C(F)(F)F)[C@H]3[C@@H]1CC[C@@H]2O (stereo not given in full) [Fulvestrant],0,0,0,0,0,0,0,0,0,0,0,0
O=C(NOCCO)c1ccc2cncn2c1Nc1ccc(I)cc1F [GDC-0623],0,1.3,0.1,0,2.3,0.8,0.4,16.3,5,0.6,6.1,6.3
C[C@H]1CN(C2COC2)CCN1c1ccc(Nc2cc(-c3ccnc(N4CCn5c(cc6c5CC(C)(C)C6)C4=O)c3CO)cn(C)c2=O)nc1 [GDC-0853],0,0,0,0,0,0,0,0,0,0,0,0
O[C@H](C[C@H]1c2c(F)cccc2-c2cncn21)[C@H]1CC[C@H](O)CC1 [GDC-0919],0,0,0.1,3,0,0,0.7,0,0.1,0.4,0.6,0.8
CNc1nc(Nc2cn(C(C)(C)C#N)nc2C)ncc1C(F)(F)F [GNE-0877],0,0,0,0,0,0,0,0,0,0,0,0
CCNc1nc(Nc2cc(F)c(C(=O)N3CCOCC3)cc2OC)ncc1C(F)(F)F [GNE-7915],0,0,0,0,0,0,0,0,0,0,0,0
CCCc1cc(C)[nH]c(=O)c1CNC(=O)c1cc(-c2ccnc(N3CCN(C)CC3)c2)cc2c1cnn2C(C)C [GSK343],0,0,0,0,0,0,0,0,0,0,0,0
CCCOc1ccn2c(C(C)=O)cc(-c3ccccc3S(C)(=O)=O)c2c1 [GSK2801],0,0,0.4,0,0,0,0,0,0,0,0,0
CCOC(=O)CCNc1cc(N2CCc3ccccc3CC2)nc(-c2ccccn2)n1 [GSK-J4],2.5,0.8,9,6.9,0,1.9,1.5,4.6,1.6,0,0.6,2.9
